Experiments:
ALOMY [1] = assay: Pre-emergence herbicidal action against ALOMY; format: in vivo, Alopecurus myosuroides; conditions: Alopecurus myosuroides, 504 h, pre-emergence; for pest or weed control at 80 g/ha: scored visually after 3 weeks vs untreated controls (100% = plants have died, 0% = like control plants)
How it was run: (§1)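 Herbicidal effect was assessed 3 weeks after treatment by visual comparison with untreated controls, 100% denoting dead plants. Aqueous WP or EC preparations had been applied at 600 to 800 l/ha with 0.2% wetting agent to the soil covering freshly sown seeds.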

ABUTH [2] = assay: Pre-emergence herbicidal action against ABUTH; format: in vivo, Abutilon theophrasti; conditions: Abutilon theophrasti, 504 h
How it was run: as §1

VERPE [3] = assay: Pre-emergence herbicidal action against VERPE; format: in vivo, Veronica persica; conditions: Veronica persica, 504 h; for pest or weed control at 20 g/ha: dosage 20 g/ha; for pest or weed control at 80 g/ha: dosage 80 g/ha
How it was run: as §1

VERPE [4] = assay: Post-emergence herbicidal action against VERPE; format: in vivo, Veronica persica; conditions: Veronica persica, 504 h, 20 g/ha
How it was run: (§2)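 Herbicidal effect was scored visually in percent after about 3 weeks in the greenhouse. Plants had been raised in sandy loam and treated post-emergence at the one-leaf stage with formulated compound at 600 to 800 l/ha water plus 0.2% wetting agent.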

AMARE [5] = assay: Post-emergence herbicidal action against AMARE; format: in vivo, Amaranthus retroflexus; conditions: Amaranthus retroflexus, 504 h, 20 g/ha, visual assessment about 3 weeks after treatment, 100% = plants have died, 0% = like control plants
How it was run: as §2

ECHCG = assay: Pre-emergence herbicidal action against ECHCG; format: in vivo, Echinochloa crus-galli; conditions: Echinochloa crus-galli, 504 h, 80 g/ha
How it was run: as §1

SETVI [6] = assay: Pre-emergence herbicidal action against SETVI; format: in vivo, Setaria viridis; conditions: Setaria viridis, 504 h; for pest or weed control at 80 g/ha: dosage 80 g/ha
How it was run: as §1

VIOTR = assay: Pre-emergence herbicidal action against VIOTR; format: in vivo, Viola tricolor; conditions: Viola tricolor, 504 h, dosage 80 g/ha
How it was run: as §1

AVEFA [7] = assay: Pre-emergence herbicidal action against AVEFA; format: in vivo, Avena fatua; conditions: Avena fatua, 504 h; 80 g/ha, pre-emergence
How it was run: as §1

AMARE [8] = assay: Pre-emergence herbicidal action against AMARE; format: in vivo, Amaranthus retroflexus; conditions: Amaranthus retroflexus, 504 h, scored visually after 3 weeks vs untreated controls, 100% = plants have died, 0% = like control plants
How it was run: as §1

ALOMY [9] = assay: Post-emergence herbicidal action against ALOMY; format: in vivo, Alopecurus myosuroides; conditions: Alopecurus myosuroides, 504 h, dosage 20 g/ha, visual assessment about 3 weeks after treatment vs untreated controls
How it was run: as §2

SETVI [10] = assay: Post-emergence herbicidal action against SETVI; format: in vivo, Setaria viridis; conditions: Setaria viridis, 504 h; for pest or weed control at 5 g/ha: dosage 5 g/ha; for pest or weed control at 20 g/ha: dosage 20 g/ha
How it was run: as §2

AVEFA [11] = assay: Post-emergence herbicidal action against AVEFA; format: in vivo, Avena fatua; conditions: Avena fatua, 504 h, 20 g/ha, visual assessment about 3 weeks after treatment, 100% = plants have died, 0% = like control plants
How it was run: as §2

LOLRI = assay: Pre-emergence herbicidal action against LOLRI; format: in vivo, Lolium rigidum; conditions: Lolium rigidum, 504 h, 80 g/ha
How it was run: as §1

ABUTH [12] = assay: Post-emergence herbicidal action against ABUTH; format: in vivo, Abutilon theophrasti; conditions: Abutilon theophrasti, 504 h, visual assessment about 3 weeks after treatment vs untreated controls; for pest or weed control at 20 g/ha: dosage 20 g/ha
How it was run: as §2

MATIN = assay: Pre-emergence herbicidal action against MATIN; format: in vivo, Matricaria inodora; conditions: Tripleurospermum inodorum, 504 h; for pest or weed control at 80 g/ha: dosage 80 g/ha
How it was run: as §1

Structure (SMILES)	pest or weed control at 80 g/ha (ALOMY [1])	pest or weed control at 20 g/ha (VERPE [3])	pest or weed control at 80 g/ha (VERPE [3])	pest or weed control at 20 g/ha (VERPE [4])	pest or weed control at 20 g/ha (AMARE [5])	pest or weed control at 80 g/ha (ECHCG)	pest or weed control at 80 g/ha (SETVI [6])	pest or weed control at 80 g/ha (VIOTR)	pest or weed control at 80 g/ha (AVEFA [7])	pest or weed control at 20 g/ha (AMARE [8])	pest or weed control at 80 g/ha (AMARE [8])	pest or weed control at 20 g/ha (ALOMY [9])	pest or weed control at 5 g/ha (SETVI [10])	pest or weed control at 20 g/ha (SETVI [10])	pest or weed control at 20 g/ha (AVEFA [11])	pest or weed control at 80 g/ha (LOLRI)	pest or weed control at 20 g/ha (ABUTH [12])	pest or weed control at 80 g/ha (MATIN)	further results
Cn1nnnc1NC(=O)c1ccc(Br)c(C(=O)NC2CC2)c1Br [Example 1-344]	100%	80%	90%	90%	100%	90%	100%	100%	90%	100%	100%	100%	80%	90%	80%	90%	90%	100%	pest or weed control at 20 g/ha (ALOMY [1]; 20 g/ha, scored visually after 3 weeks, 100% = plants have died, 0% = like control plants): 90%; pest or weed control at 80 g/ha (ABUTH [2]; 80 g/ha, scored visually after 3 weeks vs untreated controls (100% = plants have died, 0% = like control plants)): 100%; pest or weed control at 20 g/ha (ABUTH [2]; dosage 20 g/ha, scored visually after 3 weeks vs untreated controls, 100% = plants have died, 0% = like control plants, read-out: Pre-emergence action against ABUTH (herbicidal activity in percent)): 90%; pest or weed control at 20 g/ha (MATIN; dosage 20 g/ha): 90%
CNC(=O)c1c(Cl)ccc(C(=O)Nc2nnnn2C)c1Br [Example 1-349]	100%	90%	90%	80%	100%	90%	100%	100%	100%	100%	100%	80%	90%	90%	80%	90%	90%	90%	pest or weed control at 20 g/ha (SETVI [6]; dosage 20 g/ha): 90%; pest or weed control at 5 g/ha (ABUTH [12]; dosage 5 g/ha): 80%

Reference: patent US12655116B2, “Substituted isophthalic acid diamides” (Bayer Aktiengesellschaft, priority 2020, dated 2026)
